≈ marks a conversion by molar mass, not a printed value.
The compounds below were run on Human alphaherpesvirus 1 (assay: Antiviral activity against HSV1 F ATCC VR733 infected in african green monkey Vero cells assessed as reduction of virus-induced cytopathic effect after 3 days). Conditions: Human alphaherpesvirus 1, Strain F ATCC VR 733, Vero, 72 h.
Format: functional, organism-based

IC50 | Compound
25 mg/L (≈ 72.2 µM) | C[C@@H]1CC(=O)[C@@H]2[C@@H](C(=O)O)CCC[C@H]2[C@@]12C[C@@H](c1ccoc1)OC2=O
0.2 mg/L (≈ 0.888 µM) | Nc1nc2c(ncn2COCCO)c(=O)[nH]1 [ACYCLOVIR]
50 mg/L (≈ 140 µM) | COC(=O)[C@@]1(C)CC(=O)C=C2C1=CC[C@@H](C)[C@]2(C)CC(=O)c1ccoc1 [CRASSIFOLIN C]
50 mg/L (≈ 134 µM) | COC(=O)[C@]12CCCC3=C1[C@@H](C[C@H](C)[C@@]31C[C@H](c3ccoc3)OC1=O)OC2 [CRASSIFOLIN D]
50 mg/L (≈ 120 µM) | COC(=O)[C@@]1(C)C2=C(CC[C@H]1OC(C)=O)[C@@]1(C[C@@H](c3ccoc3)OC1=O)[C@H](C)CC2 [CRASSIFOLIN F]
50 mg/L (≈ 139 µM) | COC(=O)[C@]1(C)CCCC2=C1CC[C@@H](C)[C@]21C[C@@H](c2ccoc2)OC1=O [PENDULIFLAWOROSIN]

— ChEMBL document CHEMBL2203092, “Clerodane diterpenoids from Croton crassifolius” (J Nat Prod, 2012)
